From patent EP1039902B1, “INHIBITORS OF GAP JUNCTION COMMUNICATION” (THE SCRIPPS RESEARCH INSTITUTE, priority 1997, dated 1999)
“Also recorded” adds a separate entry of the source.

What was measured:
[1] = system: rat glial cell gap junction; test: Gap junction dye coupling assay (Lucifer yellow dye transfer; microinjection or scrape loading); type: cell-based; conditions: for potency of gap junction inhibition relative to oleamide: comparison in words
Method: (§1) Rat glial cells (Suter et al., 1987) obtained from Dr. Trosko's laboratory were cultured in standard plastic tissue cultureware in Richter's Improved Minimal Essential Medium (Irvine Scientific, Santa Ana, CA), supplemented with 10% fetal calf serum and 50 µg/ml gentamicin sulfate, and incubated in a humidified atmosphere of 95% air/5% CO2 at 37°C. The cells were passaged by trypsinization and used at passages 4-8. BHK (baby hamster kidney) cells that were stably transfected with a β1 connexin cDNA (Kumar et al., 1995) were cultured in DMEM medium supplemented with 5% fetal calf serum and 50 µg/ml gentamicin sulfate, and incubated in a humidified atmosphere of 95% air/5% CO2 at 37° C. In order to induce β1 connexin expression in the BHK cells, 100 µM zinc acetate was added to culture medium for 8-18 hours when the cell culture was about 90% confluent.
(§2) Gap junctional communication in glial cell and BHK/β1 cell cultures was assayed by microinjection of 5% Lucifer yellow CH dye in 0.1 M LiCl solution, and quantitated by determining the number of directly adjacent, neighboring cells that received dye (dye-coupling). Micropipettes were loaded with the dye solution by backfilling. Cells were visualized using a Nikon Diaphot inverted phase contrast/ epifluorescent microscope, and impaled with dye-filled micropipettes using an Eppendorf microinjector (model 5246). Five minutes after dye-injection, the transfer of dye to directly adjacent cells was determined using epifluorescent illumination. For each treatment condition, ten cells were microinjected in each of three dishes, the total number of dye-coupled neighboring cells was calculated and compared to determine the % dye-coupling. For scrape loading measurements, Lucifer yellow CH (0.05% dye in PBS) was loaded intracellularly by cutting or scraping cells in the monolayer with a sharp knife. The dye solution was left in the dish for 90 seconds, then the solution was discarded, and the dish subsequently washed with PBS. The cells were examined for dye transfer with an inverted epifluorescence microscope, and the degree of communication was assessed by determining the extent of Lucifer yellow transfer into contiguous cells.

BHK/β1 cells = test: Gap junction dye transfer between β1 connexin-transfected BHK cells; type: cell-based, baby hamster
Method: as §1, §2

rat glial cells = test: Calcium wave propagation (Fluo-3, mechanical stimulation); type: cell-based
Method: Rat glial cells were loaded with 5 µM Fluo-3/AM (Calbiochem) in Hank's balanced salt solution containing 25 mM HEPES buffer (HBSS/HEPES) for 1 hour, at which point the loading buffer was exchanged for new HBSS/HEPES buffer. The cell cultures were then left at room temperature for at least 30 minutes. Mechanical stimulation of a single cell was performed as follows: a glass micropipette (tip diameter of approximately 0.5 µm) was micro-manipulated downward on to a single cell causing a transient deformation of the cell membrane. The calcium image was then examined with an inverted fluorescence microscope, and photographed with a digital fluorescence microscope (excitation = 506 nm, emmision = 526 nm). The degree of calcium wave propagation was quantitated by counting at different time points the number of transmitting cells in one linear direction away from the stimulated cell. Junctional dye transfer rates were simultaneously examined by microinjection of Lucifer yellow CH in the same dishes; the methods for dye transfer assay was described in assay procedures, gap junction dye coupling assays. For calcium wave and dye transfer studies, the drug was preincubated with the glial cells for 10 minutes, and the drug was left in the experimental solution throughout the examination. All measurements were performed at room temperature.

α1 connexin = test: Immunoblotting of α1 connexin phosphorylation isoforms; type: cell-based, rat; conditions: 50 µM, 4 hours
Method: Plasma membrane fractions containing gap junctions were obtained after hypotonic alkali extraction of the glial cells. The extracted protein was dissolved in 2% SDS and the total protein was determined using the Bio-Rad DC Protein Assay kit (Bio-Rad Corp.). 10 µg of protein was electrophoresed by 10% SDS-PAGE, and subsequently blotted electrophoretically on to Immobilon-P membranes (Millipore Corp.). Gap junction protein was detected using anti-α1 connexin polyclonal rabbit antibodies, and the HRP/Chemiluminescence detection kit (Amersham Corp.) following the manufacturer's instructions.

[2] = result in words, concentration not stated at the place

| Structure (SMILES) | inhibition of gap junction-mediated dye transfer [1, 2] | also measured |
| --- | --- | --- |
| CCCC/C=C\CCCCCCCC(N)=O [14:1^9, Myristoleamide] | loss of activity | – |
| CCCCCCCCCCCCCCCCCC(N)=O [18:0, stearamide] | no observable inhibition | inhibition of gap junction-mediated dye transfer ([1]; result in words, concentration not given, listed as octadecanamide): ineffective |
| CC1(C)[C@@H](O)CC[C@]2(C)[C@H]3C(=O)C=C4[C@@H]5C[C@@](C)(C(=O)O)CC[C@]5(C)CC[C@@]4(C)[C@]3(C)CC[C@@H]12 [18β-GA, 18β-glycyrrhetinic acid, reference compound] | – | block of dye transfer ([1]; 40 µM): completely blocking; potency of gap junction inhibition relative to oleamide [1]: blocked dye transfer at doses comparable to oleamide; effect on dye transfer (BHK/β1 cells; concentration not given): inhibitory effects; calcium wave propagation (rat glial cells; 40 µM, 10 minutes prior to mechanical stimulation): completely blocking; also recorded: did not propagate to any other cells |
| CCCCCCCC/C=C\CCCCCCCC(=O)OC[C@H](CO)OC(C)=O [(2S)-1-oleoyl-2-acetylglycerol, reference compound] | not inhibitors | – |
| CCCCCCCC/C=C\CCCCCCCC(=O)CBr [BrCH2, 1-Bromo-10Z-nonadecen-2-one] | substantially less effective | – |
| COCCCCCCCC/C=C\CCCCCCCC(N)=O [CH2OCH3] | did not effect the gap junction inhibition | – |
| CCCCCCCC/C=C\CCCCCCC(S)C(N)=O (stereo not shown) [CHSH] | ineffective | – |
| CCCCCCCC/C=C\CCCCCCCC(=O)CCl [ClCH2] | substantially less effective | – |
| CCCCCCCC/C=C\CCCCCCCC(=O)N(C)OC [MeONMe] | most potent of the agents examined | – |
| CCCCCCCC/C=C\CCCCCCCC(=O)NCC(N)=O [N-oleoyl glycinamide] | ineffective | – |
| CCCCCCCC/C=C\CCCCCCCC(=O)NCC(=O)OCC [N-oleoyl glycine ethyl ester] | effective, albeit slightly less potent, inhibitor | – |
| CCCCCCCC/C=C\CCCCCCCC(=O)NCC(=O)O [N-oleoyl glycine] | ineffective | – |
| CCCCCCCC/C=C\CCCCCCCC(=O)N(C)CC(=O)OCC [N-oleoyl sarcosine ethyl ester] | effective inhibitors | – |
| CCCCCCCC/C=C\CCCCCCCC(=O)N(C)CC(=O)O [N-oleoyl sarcosine] | effective inhibitors | – |
| CCCCC/C=C\C/C=C\C/C=C\C/C=C\CCCC(N)=O [arachidonamide] | effective inhibitor | potency of gap junction inhibition relative to oleamide [1]: not quite as potent as oleamide |
| NC(=O)CCCCCCC/C=C\CCCCCCCC(=O)O [carboxylic acid] | – | inhibition of gap junction-mediated dye transfer ([1]; 50 µM): no gap junction inhibition |
| CCCCCCCCC/C=C\CCCCCCC(N)=O [cis-8-octadecenamide] | – | inhibition of gap junction-mediated dye transfer ([1]; 50 µM): significant inhibitors; potency of gap junction inhibition relative to oleamide [1]: less potent than oleamide at lower doses |
| CCCCCC/C=C\CCCCCCCCCC(N)=O [cis-11-octadecenamide] | – | inhibition of gap junction-mediated dye transfer ([1]; 50 µM): only slightly affected junctional coupling; inhibition of gap junction-mediated dye transfer ([1]; 100 µM): completely blocked dye transfer |
| CCCCCCCCC#CCCCCCCCC(N)=O [compound 2, 9-octadecynamide] | potent inhibitor | potency of gap junction inhibition relative to oleamide [1]: only slightly less active than oleamide |
| CCCCCCCC/C=C\CCCCCCCC(=O)OCC [ethyl oleate] | progressively reduced effectiveness | – |

| Structure (SMILES) | inhibition of gap junction-mediated dye transfer [1, 2] | also measured |
| --- | --- | --- |
| CCCCCCCO [heptanol, reference compound] | – | block of dye transfer ([1]; 3 mM): completely blocking; minimal effective concentration ([1]; Rattus norvegicus, Glial cell, read-out: concentrations required to inhibit junctional communication): 3000 µM; effect on dye transfer (BHK/β1 cells; concentration not given): inhibitory effects; calcium wave propagation (rat glial cells; 3 mM): completely blocking |
| CCCCC/C=C\C/C=C\CCCCCCCC(N)=O [linoleamide, Linoleamide] | – | potency of gap junction inhibition relative to oleamide [1]: lower than oleamide |
| CCCCCCCC/C=C\CCCCCCCC(=O)OC [methyl oleate] | progressively reduced effectiveness | – |
| CCCCCCCC/C=C\CCCCCCCCOC(C)=O [oleyl acetate, Oleyl acetate] | progressively reduced effectiveness | – |
| CCCCCCCC/C=C\CCCCCCCCO [oleyl alcohol, Oleyl alcohol] | progressively reduced effectiveness | – |
| CCCCCCCC/C=C\CCCCCCCC(OC)OC [oleyl aldehyde dimethyl acetal, Oleyl aldehyde dimethyl acetal] | inactive | – |
| CCCCCCCC/C=C\CCCCCCCC(=O)NCCCO [oleyl propanolamide] | comparable properties | – |
| CCCCCC/C=C\CCCCCCCC(N)=O [palmitoleamide, Palmitoleamide] | potent activity | – |
| Cc1ccc(C(=O)Nc2ccc(S(=O)(=O)O)c3cc(S(=O)(=O)O)cc(S(=O)(=O)O)c23)cc1NC(=O)c1cccc(NC(=O)Nc2cccc(C(=O)Nc3cc(C(=O)Nc4ccc(S(=O)(=O)O)c5cc(S(=O)(=O)O)cc(S(=O)(=O)O)c45)ccc3C)c2)c1 [suramin, reference compound] | – | gap junction communication ([1]; 200 µM): without affecting gap junction communication; glial calcium wave transmission (rat glial cells; 200 µM): blocked glial calcium wave transmission |
| NC(=O)CCCCCCC/C=C\CCCCCCCC(N)=O [symmetrical 18:1^9 dicarboxamide] | – | inhibition of gap junction-mediated dye transfer ([1]; 50 µM): no gap junction inhibition |
| NC(=O)CCCCCCC/C=C\CCCCCCCCO [terminal alcohol, 18-hydroxyoleamide] | – | inhibition of gap junction-mediated dye transfer ([1]; 50 µM): no gap junction inhibition |
| CCCCCCCC/C=C/CCCCCCCC(N)=O [trans-9-octadecenamide] | ineffective; also recorded: no effect | inhibition of gap junction-mediated dye transfer ([1]; result in words, concentration not given, listed as 18:1^9-trans): no observable inhibition; effect on dye transfer (BHK/β1 cells; 50 µM, 4 hours of treatment): no effect; effect on dye transfer (BHK/β1 cells; concentration not given): no effect; α1 connexin phosphorylation profile (P2 isoform) (α1 connexin): No change |
| CCCCCCCC/C=C\CCCCCCC(C)(C)C(N)=O [α,α-dimethyl oleamide] | potent inhibitors | – |
| CCCCCCCC/C=C\CCCCCCC(SC(C)=O)C(N)=O (stereo not drawn) [α-acetylthiooleamide] | effective inhibitors | – |
| CCCCCCCC/C=C\CCCCCCC(Cl)C(N)=O (stereo not drawn) [α-chlorooleamide] | effective inhibitors | – |
| CCCCCCCC/C=C\CCCCCCC(O)C(N)=O (stereo not drawn) [α-hydroxy oleamide, 2-hydroxy-9Z-octadecenamide] | effective inhibitors | – |
| CC/C=C\C/C=C\C/C=C\CCCCCCCC(N)=O [α-linolenamide] | – | inhibition of gap junction-mediated dye transfer ([1]; 50 µM): ineffective |
| CCCCCCCC/C=C\CCCCCCC(C)C(N)=O (stereo not drawn) [α-methyl oleamide] | potent inhibitors | – |
| CCCCC/C=C\C/C=C\C/C=C\CCCCC(N)=O [γ-linolenamide] | effective but less potent inhibitor | – |
